Data set [1] relates to Mycobacterium tuberculosis. The data set can be described thus: Antimycobacterial activity against Mycobacterium tuberculosis H37Rv ATCC 27294. The data set is classed as functional.
Data set [2] deals with MCF7. Nature of the data set: Cytotoxicity against human MCF7 cells. The data set is classed as cell-based.
The test system of data set [3] is MCF7. The data set can be described thus: Cytotoxicity against human MCF7 cells at 650 uM. The data set is classed as cell-based. The following applies: mcf7, 650 µM.
The test system of data set [4] is Mycobacterium tuberculosis. Nature of the data set: Antimycobacterial activity against Mycobacterium tuberculosis H37Rv ATCC 27294 at 650 uM. The data set is classed as functional, organism-based.

Converted amounts (≈) assume the structure as drawn. The source made the active and inactive calls. No cut-off for these calls is given here.

By MIC is commonly meant the lowest concentration that inhibits growth of the organism. Higher therefore signals weaker potency. In general, IC50 refers to the point on the concentration scale where inhibition reaches its midpoint. The low end stands for inhibition by little substance, the high end for a need for much substance. Consider `COC(=O)[C@]12CCCC(C)(C)[C@@H]1CCc1cc(C(C)C)c(OC)c(O)c12`, for which the minimal inhibitory concentration (MIC) in data set [1] was 28 µM (≈ 10.1 µg/mL). Moreover, the IC50 in data set [2] amounted to 69 µM.

Regarding `C=C/C(C)=C/C[C@H]1C(=C)CC[C@@H]2[C@]1(C)C[C@@H](O)C[C@@]2(C)C(=O)O`, the Activity result in data set [3] was “Not Active”. Besides, the MIC in data set [1] came out at 157 µM (≈ 50 µg/mL).

With `C=C/C(C)=C/C[C@H]1C(=C)CC[C@H]2[C@](C)(CO)C[C@H](O)C[C@]12C`, the IC50 in data set [2] turned out to be 82 µM. The outcome in data set [4] was inactive.

As to `CC(C)c1cc2c(c(O)c1O)[C@@]13CCCC(C)(C)[C@@H]1C[C@@H]2OC3=O` [CARNOSOL], the Activity result in data set [3] was “Not Active”. Moreover, the outcome in data set [4] was inactive.

The values are drawn from ChEMBL document CHEMBL1141389, “Bioactive diterpenes from Orthosiphon labiatus and Salvia africana-lutea” (J Nat Prod, 2007).
